What was measured:
[1] = test system: TXNIP mRNA; assay: TXNIP mRNA expression in THP1 cells under 25 mM glucose (RT-PCR); type: cell-based, human
Experimental: FIGS. 2A-2B. FIG. 2A: C30 and C38 inhibited TXNIP mRNA expression in THP1 cells. THP1 cells were cultured under 25 mM glucose with the indicated concentrations of compounds for 72 hours. Cells were then collected for total RNA preparation. RT-PCR was performed, and data shown are the mean±SEM from triplicates. Statistical analysis was performed using one-way ANOVA, *p<0.0001. FIG. 2B: C30 and C38 inhibited TNF-α mRNA expression in THP1 cells. THP1 cells were cultured under 25 mM glucose with various concentrations of compounds as indicated for 72 hours and collected for total RNA preparation. RT-PCR was performed, and data shown are the mean±SEM from triplicates. Statistical analysis was performed using one-way ANOVA: *<0.02; **<0.0001.
FIG. 6. C38 analogues effects on TXNIP mRNA expression in THP1 cells. THP1 cells were cultured under 25 mM glucose with 2.5 uM of compounds for 72 h. Total RNA was collected. RT-PCR was performed in triplicate and data shown are the mean±SEM. Statistical analysis was performed using one-way ANOVA: *p<0.0001.
FIG. 7. C38 and analogue E2 effects on TXNIP mRNA levels in THP cells. THP1 cells were cultured under 25 mM glucose with several concentration of C38 and E2 as indicated for 72 hours. Total RNA was prepared. RT-PCR was performed in triplicate and data shown are the mean±SEM. Statistical analysis was performed for each column vs. without compound control using one-way ANOVA: *p<0.0001.
C30 and C38 inhibited TXNIP mRNA expression in THP1 cells.
Discovery of lead compound analogues. A search of chemical libraries was performed in the interest of identifying possible lead compound analogues. Analogues to C38 were identified. To determine the properties of the analogues, we treated THP1 cells with the E batch compounds for three days, prepared RNA and measured TXNIP mRNA levels.
RNA extraction and quantitative RT-PCR. RNA was extracted using the Direct-zol™ RNA MiniPrep Plus (Zymo Research). Reverse transcription of RNA samples into cDNA was performed using the GeneAmp RNA PCR Kit (Applied Biosystems), dNTP (from Roche Applied Science), Rnase inhibitor, MULV Reverse Transcriptase and Random hexamers reagent (all from Invitrogen). Diluted cDNA was quantified using real-time PCR performed with Power SYBR Green qPCR MasterMix (Applied Biosystem) and 7500 real-time PCR system (Applied Biosystems). The HPRT1 gene was used as an internal control.

[2] = test system: TXNIP; settings: literature (Nature Med. 2018); cited from earlier work

## COc1ccc(CCNc2ncnc3c2oc2ccccc23)cc1OC [Compound E2]
[1]; 2.5 uM compound, 72 h
  TXNIP mRNA expression (C38 analogues screen): strongly inhibited TXNIP mRNA expression
[1]; several concentrations, 72 hours
  TXNIP mRNA levels, E2 compared with C38: moderately better than C38

## COc1ccc(CCN(C)CCCC(C#N)(c2ccc(OC)c(OC)c2)C(C)C)cc1OC (stereo not drawn) [Verapamil]
[2]
  expression of TXNIP: inhibit the expression of TXNIP
